Experimental data taken from patent publication US12187740B2, “Polymorphic forms of bictegravir potassium” (HONOUR LAB LIMITED, priority 2021, dated 2025).

Assay: Storage stability test of crystalline Form HN1 (PXRD, HPLC purity, Karl Fischer water content)
Type: physicochemical
Design: Water: unit not given here
Conditions: for Purity: HPLC; for Water: Karl Fischer
Protocol: X-ray powder diffraction spectrum was measured on a BRUKER axs D8 advance X-ray powder diffractometer having a copper-Ka radiation. Approximately 1 gm of sample was gently flattered on a sample holder and scanned from 2 to 50 degrees two-theta, at 0.02 degrees two theta per step and a step time of 10.8 seconds. The sample was simply placed on the sample holder. The sample was rotated at 30 rpm at a voltage 40 KV and current […].
In another aspect of the present invention Bictegravir potassium crystalline Form HN1 is stable at 5±3° C. and 25±2° C./60±5% RH (Relative humidity) and has the following stability data:
The stability of samples was tested by PXRD, HPLC and water content was measured by Karl Fischer method.

[1] = storage 25 ± 2° C./RH 60 ± 5%, 1st month
[2] = storage 25 ± 2° C./RH 60 ± 5%, 3rd month
[3] = storage 25 ± 2° C./RH 60 ± 5%, 6th month
[4] = storage 25 ± 2° C./RH 60 ± 5%, Initial
[5] = at 5±3° C. and 25±2° C./60±5% RH

O=C(NCc1c(F)cc(F)cc1F)c1cn2c(c([O-])c1=O)C(=O)N1[C@H]3CC[C@H](C3)O[C@@H]1C2.[K+] [Form HN1, Bictegravir potassium]
Purity (storage 5 ± 3° C., 1st month): 99.87 | Purity (storage 5 ± 3° C., 3rd month): 99.81 | Purity (storage 5 ± 3° C., 6th month): 99.81 | Purity (storage 5 ± 3° C., Initial): 99.88 | Purity [1]: 99.87 | Purity [2]: 99.80 | Purity [3]: 99.81 | Purity [4]: 99.88 | Water (storage 5 ± 3° C., 1st month): 2.8 | Water (storage 5 ± 3° C., 3rd month): 2.8 | Water (storage 5 ± 3° C., 6th month): 2.8 | Water (storage 5 ± 3° C., Initial): 2.2 | Water [1]: 2.8 | Water [2]: 2.9 | Water [3]: 2.8 | Water [4]: 2.2 | change in PXRD pattern after storage [5]: no change | change in water content after storage [5]: no change | decrease in purity after storage [5]: no significant decrease | stability on storage (overall) [5]: physically and chemically stable | PXRD (storage 5 ± 3° C., 1st month): Form HN1 | PXRD (storage 5 ± 3° C., 3rd month): Form HN1 | PXRD (storage 5 ± 3° C., 6th month): Form HN1 | PXRD (storage 5 ± 3° C., Initial): Form HN1 | PXRD [1]: Form HN1 | PXRD [2]: Form HN1 | PXRD [3]: Form HN1 | PXRD [4]: Form HN1
